In ChEMBL document CHEMBL4138105, “LL-37-derived short antimicrobial peptide KR-12-a5 and its d-amino acid substituted analogs with cell selectivity, anti-biofilm activity, synergistic effect with conventional antibiotics, and anti-inflammatory activity” (Eur J Med Chem, 2017):
≈ marks a conversion by molar mass, not a printed value. Calls of active or inactive are those of the source. The calls are words filed in the database; no cut-off is given here.

Assays:
Pseudomonas aeruginosa [1] = assay: Antibacterial activity against Pseudomonas aeruginosa KCTC 1637 after 24 hrs; type: functional; settings: KCTC 1637, 24 h
Salmonella typhimurium = assay: Antibacterial activity against Salmonella typhimurium KCTC 11926 after 24 hrs; type: functional, Salmonella enterica subsp. enterica serovar Typhimurium; settings: Salmonella enterica, KCTC 11926, 24 h
Bacillus subtilis = assay: Antibacterial activity against Bacillus subtilis KCTC 3068 after 24 hrs; type: functional; settings: KCTC 3068, 24 h
[2] = system: Staphylococcus epidermidis; assay: Antibacterial activity against Staphylococcus epidermidis KCTC 1917 after 24 hrs; type: functional; settings: KCTC 1917, 24 h
Staphylococcus aureus [3] = assay: Antibacterial activity against Staphylococcus aureus KCTC 1621 after 24 hrs; type: functional; settings: KCTC 1621, 24 h
Erythrocyte = assay: Hemolytic activity in human RBC after 1 hr; type: ADME, cell-based
[4] = Therapeutic index, ratio of MHC10 for human RBC to MIC for Escherichia coli KCTC 1682; type: toxicity; settings: red blood cells (RBC), pooled result: one value given for 6 cell lines, strains, targets or settings, read-out: TI
NIH3T3 = assay: Cytotoxicity against mouse NIH/3T3 cells up to 128 uM after 48 hrs by MTT assay; type: cell-based; settings: nih3t3, 48 h
RAW264.7 [5] = assay: Anti-inflammatory activity in mouse RAW264.7 cells assessed as reduction in LPS-induced nitric oxide production at 10 to 20 uM after 24 hrs by Griess assay; type: functional, cell-based
RAW264.7 [6] = assay: Anti-inflammatory activity in mouse RAW264.7 cells assessed as reduction in LPS-induced IL-6 production at 10 to 20 uM preincubated for 1 hr followed by LPS stimulation measured after 6 hrs by ELISA; type: functional, cell-based
RAW264.7 [7] = assay: Anti-inflammatory activity in mouse RAW264.7 cells assessed as reduction in LPS-induced TNF-alpha mRNA expression at 10 uM after 3 hrs by RT-PCR analysis; type: functional, cell-based
RAW264.7 [8] = assay: Anti-inflammatory activity in mouse RAW264.7 cells assessed as reduction in LPS-induced IL-6 mRNA expression at 10 uM after 3 hrs by RT-PCR analysis; type: functional, cell-based
RAW264.7 [9] = assay: Anti-inflammatory activity in mouse RAW264.7 cells assessed as reduction in LPS-induced MCP-1 mRNA expression at 10 uM after 3 hrs by RT-PCR analysis; type: functional, cell-based
Staphylococcus aureus [10] = assay: Antibacterial activity against methicillin resistant Staphylococcus aureus CCARM 3089 after 24 hrs; type: functional; settings: CCARM 3089, 24 h
Staphylococcus aureus [11] = assay: Antibacterial activity against methicillin resistant Staphylococcus aureus CCARM 3095 after 24 hrs; type: functional; settings: CCARM 3095, 24 h
Pseudomonas aeruginosa [12] = assay: Antibacterial activity against multidrug-resistant Pseudomonas aeruginosa CCARM 2095 after 24 hrs; type: functional; settings: CCARM 2095, 24 h
Pseudomonas aeruginosa [13] = assay: Antibacterial activity against multidrug-resistant Pseudomonas aeruginosa CCARM 2109 after 24 hrs; type: functional; settings: CCARM 2109, 24 h
Escherichia coli [14] = assay: Antibacterial activity against Escherichia coli KCTC 1682 in presence of 150 mM NaCl after 24 hrs; type: functional; settings: KCTC 1682, 24 h
Escherichia coli [15] = assay: Antibacterial activity against Escherichia coli KCTC 1682 in presence of 4.5 mM KCl after 24 hrs; type: functional; settings: KCTC 1682, 24 h
Escherichia coli [16] = assay: Antibacterial activity against Escherichia coli KCTC 1682 in presence of 6 uM NH4Cl after 24 hrs; type: functional; settings: KCTC 1682, 24 h
Escherichia coli [17] = assay: Antibacterial activity against Escherichia coli KCTC 1682 in presence of 1 mM MgCl2 after 24 hrs; type: functional; settings: KCTC 1682, 24 h
Staphylococcus aureus [18] = assay: Antibacterial activity against Staphylococcus aureus KCTC 1621 in presence of 150 mM NaCl after 24 hrs; type: functional; settings: KCTC 1621, 24 h
Staphylococcus aureus [19] = assay: Antibacterial activity against Staphylococcus aureus KCTC 1621 in presence of 4.5 mM KCl after 24 hrs; type: functional; settings: KCTC 1621, 24 h
Staphylococcus aureus [20] = assay: Antibacterial activity against Staphylococcus aureus KCTC 1621 in presence of 1 mM MgCl2 after 24 hrs; type: functional; settings: KCTC 1621, 24 h
Staphylococcus aureus [21] = assay: Antibacterial activity against Staphylococcus aureus KCTC 1621 in presence of 2.5 mM CaCl2 after 24 hrs; type: functional; settings: KCTC 1621, 24 h
Staphylococcus aureus [22] = assay: Antibacterial activity against Staphylococcus aureus KCTC 1621 in presence of 20% human serum after 24 hrs; type: functional; settings: KCTC 1621, 24 h
Staphylococcus aureus [23] = assay: Ratio of MIC for Staphylococcus aureus KCTC 1621 in presence of 20% human serum to MIC for Escherichia coli KCTC 1682 in presence of 20% human serum; type: functional
Pseudomonas aeruginosa [24] = assay: Antibiofilm activity against multidrug-resistant Pseudomonas aeruginosa CCARM 2095 after 24 hrs by crystal violet staining based assay; type: functional
Pseudomonas aeruginosa [25] = assay: Synergistic antibacterial activity against multidrug-resistant Pseudomonas aeruginosa CCARM 2095 after 72 hrs in presence of oxacillin by chequerboard assay; type: functional
Staphylococcus aureus [26] = assay: Antibacterial activity against Staphylococcus aureus KCTC 1621 assessed as cell membrane disruption at 2 times MIC within 4 mins by Sytox Green dye based fluorescence spectrophotometer assay; type: functional, organism-based
Staphylococcus aureus [27] = assay: Antibacterial activity against Staphylococcus aureus KCTC 1621 assessed as cytoplasmic membrane depolarization at 2 times MIC by disC3-5 dye based fluorescence assay; type: functional, organism-based
Staphylococcus aureus [28] = assay: Potency index, ratio of LL-37 MIC to compound MIC for methicillin resistant Staphylococcus aureus CCARM 3089; type: functional
Staphylococcus aureus [29] = assay: Potency index, ratio of LL-37 MIC to compound MIC for methicillin resistant Staphylococcus aureus CCARM 3095; type: functional
Pseudomonas aeruginosa [30] = assay: Potency index, ratio of LL-37 MIC to compound MIC for multidrug-resistant Pseudomonas aeruginosa CCARM 2095; type: functional
Pseudomonas aeruginosa [31] = assay: Potency index, ratio of LL-37 MIC to compound MIC for multidrug-resistant Pseudomonas aeruginosa CCARM 2109; type: functional
Enterococcus faecium [32] = assay: Potency index, ratio of LL-37 MIC to compound MIC for Vancomycin-resistant Enterococcus faecium ATCC 51559; type: functional
Staphylococcus aureus [33] = assay: Potency index, ratio of melittin MIC to compound MIC for methicillin resistant Staphylococcus aureus CCARM 3089; type: functional
Staphylococcus aureus [34] = assay: Potency index, ratio of melittin MIC to compound MIC for methicillin resistant Staphylococcus aureus CCARM 3090; type: functional
Staphylococcus aureus [35] = assay: Potency index, ratio of melittin MIC to compound MIC for methicillin resistant Staphylococcus aureus CCARM 3095; type: functional
Pseudomonas aeruginosa [36] = assay: Potency index, ratio of melittin MIC to compound MIC for multidrug-resistant Pseudomonas aeruginosa CCARM 2095; type: functional
Pseudomonas aeruginosa [37] = assay: Potency index, ratio of melittin MIC to compound MIC for multidrug-resistant Pseudomonas aeruginosa CCARM 2109; type: functional
Enterococcus faecium [38] = assay: Potency index, ratio of melittin MIC to compound MIC for Vancomycin-resistant Enterococcus faecium ATCC 51559; type: functional
Lipid bilayer = assay: Binding affinity to EYPE/EYPG small unilamellar vesicles assessed as intrinsic tryptophan acrylamide quenching constant by fluorescence assay (reference value: 5.95 to 7.56 /M)
[39] = Binding affinity to EYPC/cholesterol small unilamellar vesicles assessed as intrinsic tryptophan acrylamide quenching constant by fluorescence assay (reference value: 5.95 to 7.56 /M)
Pseudomonas aeruginosa [40] = assay: Potency index, ratio of LL-37 MBIC90 to compound MBIC90 for antibiofilm activity against multidrug-resistant Pseudomonas aeruginosa CCARM 2095; type: functional

CC[C@H](C)[C@H](NC(=O)[C@H](CC(C)C)NC(=O)[C@@H](CCCCN)NC(=O)[C@@H](NC(=O)[C@@H](NC(=O)[C@H](CCCNC(=N)N)NC(=O)[C@@H](N)CCCCN)[C@@H](C)CC)C(C)C)C(=O)N[C@@H](CC(C)C)C(=O)N[C@@H](CCCCN)C(=O)N[C@@H](Cc1c[nH]c2ccccc12)C(=O)N[C@@H](CC(C)C)C(=O)N[C@@H](CCCNC(=N)N)C(N)=O
MIC (Pseudomonas aeruginosa [1]): 8 µM (≈ 12.5 µg/mL) | MIC (Salmonella typhimurium): 2 µM (≈ 3.13 µg/mL) | MIC (Bacillus subtilis): 8 µM (≈ 12.5 µg/mL) | MIC [2]: 4 µM (≈ 6.26 µg/mL) | MIC (Staphylococcus aureus [3]): 2 µM (≈ 3.13 µg/mL) | MHC10 (Erythrocyte): 79 µM | selectivity ratio [4]: 16.8 | Activity (NIH3T3): Non-Toxic | Activity (RAW264.7 [5]): Active | Activity (RAW264.7 [6]): Active | Activity (RAW264.7 [7]): Active | Activity (RAW264.7 [8]): Active | Activity (RAW264.7 [9]): Active | MIC (Staphylococcus aureus [10]): 4 µM (≈ 6.26 µg/mL) | MIC (Staphylococcus aureus [11]): 4 µM (≈ 6.26 µg/mL) | MIC (Pseudomonas aeruginosa [12]): 8 µM (≈ 12.5 µg/mL) | MIC (Pseudomonas aeruginosa [13]): 4 µM (≈ 6.26 µg/mL) | MIC (Escherichia coli [14]): 4 µM | MIC (Escherichia coli [15]): 4 µM | MIC (Escherichia coli [16]): 4 µM | MIC (Escherichia coli [17]): 8 µM | MIC (Staphylococcus aureus [18]): 2 µM | MIC (Staphylococcus aureus [19]): 2 µM | MIC (Staphylococcus aureus [20]): 8 µM | MIC (Staphylococcus aureus [21]): 4 µM | MIC (Staphylococcus aureus [22]): 16 µM | Ratio (Staphylococcus aureus [23]): 2 - 8 | MBIC90 (Pseudomonas aeruginosa [24]): 8 µM | fractional inhibitory concentration index (FICI) (Pseudomonas aeruginosa [25]): 0.375 | Activity (Staphylococcus aureus [26]): Active | Activity (Staphylococcus aureus [27]): Active | Ratio (Staphylococcus aureus [28]): 2 - 4 | Ratio (Staphylococcus aureus [29]): 2 - 4 | Ratio (Pseudomonas aeruginosa [30]): 2 - 4 | Ratio (Pseudomonas aeruginosa [31]): 2 - 4 | Ratio (Enterococcus faecium [32]): 2 - 4 | Ratio (Staphylococcus aureus [33]): 2 - 4 | Ratio (Staphylococcus aureus [34]): 2 - 4 | Ratio (Staphylococcus aureus [35]): 2 - 4 | Ratio (Pseudomonas aeruginosa [36]): 2 - 4 | Ratio (Pseudomonas aeruginosa [37]): 2 - 4 | Ratio (Enterococcus faecium [38]): 2 - 4 | KSV (Lipid bilayer): 1.02 M⁻¹ | KSV [39]: 2.21 M⁻¹ | fold change (FC) (Pseudomonas aeruginosa [40]): 4 - 8

CC[C@H](C)[C@H](NC(=O)[C@H](CC(C)C)NC(=O)[C@H](CCCCN)NC(=O)[C@@H](NC(=O)[C@@H](NC(=O)[C@H](CCCNC(=N)N)NC(=O)[C@@H](N)CCCCN)[C@@H](C)CC)C(C)C)C(=O)N[C@@H](CC(C)C)C(=O)N[C@@H](CCCCN)C(=O)N[C@@H](Cc1c[nH]c2ccccc12)C(=O)N[C@@H](CC(C)C)C(=O)N[C@@H](CCCNC(=N)N)C(N)=O
MIC (Pseudomonas aeruginosa [1]): 8 µM (≈ 12.5 µg/mL) | MIC (Salmonella typhimurium): 2 µM (≈ 3.13 µg/mL) | MIC (Bacillus subtilis): 8 µM (≈ 12.5 µg/mL) | MIC [2]: 4 µM (≈ 6.26 µg/mL) | MIC (Staphylococcus aureus [3]): 4 µM (≈ 6.26 µg/mL) | MHC10 (Erythrocyte): 25 µM | selectivity ratio [4]: 4.4 | Activity (NIH3T3): Non-Toxic | Activity (RAW264.7 [5]): Active | Activity (RAW264.7 [6]): Active | Activity (RAW264.7 [7]): Active | Activity (RAW264.7 [8]): Active | Activity (RAW264.7 [9]): Active | MIC (Staphylococcus aureus [10]): 4 µM (≈ 6.26 µg/mL) | MIC (Staphylococcus aureus [11]): 4 µM (≈ 6.26 µg/mL) | MIC (Pseudomonas aeruginosa [12]): 16 µM (≈ 25 µg/mL) | MIC (Pseudomonas aeruginosa [13]): 8 µM (≈ 12.5 µg/mL) | MIC (Escherichia coli [14]): 8 µM | MIC (Escherichia coli [15]): 8 µM | MIC (Escherichia coli [16]): 8 µM | MIC (Escherichia coli [17]): 8 µM | MIC (Staphylococcus aureus [18]): 2 µM | MIC (Staphylococcus aureus [19]): 2 µM | MIC (Staphylococcus aureus [20]): 8 µM | MIC (Staphylococcus aureus [21]): 2 µM | MIC (Staphylococcus aureus [22]): 8 µM | Ratio (Staphylococcus aureus [23]): 2 - 8 | MBIC90 (Pseudomonas aeruginosa [24]): 16 µM | fractional inhibitory concentration index (FICI) (Pseudomonas aeruginosa [25]): 0.375 | Activity (Staphylococcus aureus [26]): Active | Activity (Staphylococcus aureus [27]): Active | Ratio (Staphylococcus aureus [28]): 2 - 4 | Ratio (Staphylococcus aureus [29]): 2 - 4 | Ratio (Pseudomonas aeruginosa [30]): 2 - 4 | Ratio (Pseudomonas aeruginosa [31]): 2 - 4 | Ratio (Enterococcus faecium [32]): 2 - 4 | Ratio (Staphylococcus aureus [33]): 2 - 4 | Ratio (Staphylococcus aureus [34]): 2 - 4 | Ratio (Staphylococcus aureus [35]): 2 - 4 | Ratio (Pseudomonas aeruginosa [36]): 2 - 4 | Ratio (Pseudomonas aeruginosa [37]): 2 - 4 | Ratio (Enterococcus faecium [38]): 2 - 4 | KSV (Lipid bilayer): 1.12 M⁻¹ | KSV [39]: 1.66 M⁻¹ | fold change (FC) (Pseudomonas aeruginosa [40]): 4 - 8
